Molecular target: T1, SMARCA2 (Homo sapiens, UniProt P51531)
T1 construct: endogenous in cells; host or cells: HT1080 (CRISPR HiBiT knock-in clone, generated in house)
Test: SMARCA2 HiBiT degradation assay (cellular)
Type: cell-based
Settings: table head names A549; for DC50: 6 h incubation, HiBiT-tagged SMARCA2, luminescence read-out, read-out: HiBit A549 SMARCA2 IP (nM) 6 h; for Emax: A549, 6 h incubation, Emax = amount of residual protein remaining in the cell following compound treatment

T1 sequence (P51531 whole entry): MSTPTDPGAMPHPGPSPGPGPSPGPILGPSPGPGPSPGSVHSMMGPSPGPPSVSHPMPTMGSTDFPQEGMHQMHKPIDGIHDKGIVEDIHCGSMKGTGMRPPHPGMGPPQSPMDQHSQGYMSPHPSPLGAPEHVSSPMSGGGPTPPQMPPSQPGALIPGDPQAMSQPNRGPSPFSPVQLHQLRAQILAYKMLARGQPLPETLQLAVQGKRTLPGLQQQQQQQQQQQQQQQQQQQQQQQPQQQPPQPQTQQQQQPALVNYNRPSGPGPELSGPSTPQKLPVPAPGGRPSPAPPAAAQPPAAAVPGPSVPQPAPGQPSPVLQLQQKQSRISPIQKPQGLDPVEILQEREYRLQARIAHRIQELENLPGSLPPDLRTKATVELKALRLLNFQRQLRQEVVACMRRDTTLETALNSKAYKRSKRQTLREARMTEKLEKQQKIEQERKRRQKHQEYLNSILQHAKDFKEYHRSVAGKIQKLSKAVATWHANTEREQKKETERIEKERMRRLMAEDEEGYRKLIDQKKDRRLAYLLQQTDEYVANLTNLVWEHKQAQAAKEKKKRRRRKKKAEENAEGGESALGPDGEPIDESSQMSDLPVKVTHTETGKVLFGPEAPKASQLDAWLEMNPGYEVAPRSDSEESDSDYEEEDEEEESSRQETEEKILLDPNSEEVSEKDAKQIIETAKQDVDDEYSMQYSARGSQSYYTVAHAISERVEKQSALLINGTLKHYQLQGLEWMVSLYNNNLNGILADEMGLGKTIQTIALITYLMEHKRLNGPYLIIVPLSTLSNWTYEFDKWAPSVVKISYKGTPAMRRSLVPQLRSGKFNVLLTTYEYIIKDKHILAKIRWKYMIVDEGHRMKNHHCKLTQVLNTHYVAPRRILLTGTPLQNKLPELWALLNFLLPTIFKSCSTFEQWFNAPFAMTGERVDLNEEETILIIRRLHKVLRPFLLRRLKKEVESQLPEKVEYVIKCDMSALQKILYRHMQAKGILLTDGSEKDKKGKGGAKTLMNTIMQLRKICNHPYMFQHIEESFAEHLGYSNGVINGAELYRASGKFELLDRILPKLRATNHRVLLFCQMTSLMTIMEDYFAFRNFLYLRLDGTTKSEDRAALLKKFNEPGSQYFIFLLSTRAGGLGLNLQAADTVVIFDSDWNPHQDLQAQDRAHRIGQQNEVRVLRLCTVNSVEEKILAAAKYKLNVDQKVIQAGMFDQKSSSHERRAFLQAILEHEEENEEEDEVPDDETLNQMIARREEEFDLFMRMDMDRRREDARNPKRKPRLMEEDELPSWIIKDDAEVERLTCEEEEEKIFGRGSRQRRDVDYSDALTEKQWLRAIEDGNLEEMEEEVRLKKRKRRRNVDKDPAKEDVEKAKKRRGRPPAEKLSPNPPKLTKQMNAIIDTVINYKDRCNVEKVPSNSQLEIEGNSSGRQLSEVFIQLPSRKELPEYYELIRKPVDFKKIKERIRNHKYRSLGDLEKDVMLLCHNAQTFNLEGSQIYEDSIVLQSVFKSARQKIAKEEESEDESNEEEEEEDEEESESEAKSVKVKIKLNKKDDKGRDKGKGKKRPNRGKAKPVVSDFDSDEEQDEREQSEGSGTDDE

Compound | DC50 [nM] | Emax [%]
Nc1nnc(-c2ccccc2O)cc1N1CC2CCC(C1)N2c1cccc(OCCN2CCN(C(=O)CNC(=O)C3CCN(c4cccc5c4C(=O)N(C4CCC(=O)NC4=O)C5=O)CC3)CC2)c1 (racemic) [Example 18, rac-N-[2-[4-[2-[3-[3-[3-amino-6-(2-hydroxyphenyl)pyridazin-4-yl]-3,8-diazabicyclo[3.2.1]octan-8-yl]phenoxy]ethyl]piperazin-1-yl]-2-oxo-ethyl]-1-[2-(2,6-dioxo-3-piperidyl)-1,3-dioxo-isoindolin-4-yl]piperidine-4-carboxamide] | 134 | 62
Nc1nnc(-c2ccccc2O)cc1N1CC2CCC(C1)N2c1cccc(OCCN2CCN(C(=O)C3CCN(c4cccc5c4C(=O)N(C4CCC(=O)NC4=O)C5=O)CC3)CC2)c1 (racemic) [Example 13, rac-4-[4-[4-[2-[3-[3-[3-amino-6-(2-hydroxyphenyl)pyridazin-4-yl]-3,8-diazabicyclo[3.2.1]octan-8-yl]phenoxy]ethyl]piperazine-1-carbonyl]-1-piperidyl]-2-(2,6-dioxo-3-piperidyl)isoindoline-1,3-dione] | 32 | 64
Nc1nnc(-c2cc(F)ccc2O)cc1OC1CCCN(c2ccc(N3CCN(C(=O)CCCCCCCCn4cc(CNc5cccc6c5C(=O)N(C5CCC(=O)NC5=O)C6=O)nn4)CC3)cc2)C1 (centres unmarked) [Example 64, 4-[[1-[9-[4-[4-[3-[3-amino-6-(5-fluoro-2-hydroxy-phenyl)pyridazin-4-yl]oxy-1-piperidyl]phenyl]piperazin-1-yl]-9-oxo-nonyl]triazol-4-yl]methylamino]-2-(2,6-dioxo-3-piperidyl)isoindoline-1,3-dione] | 82 | 52
Nc1nnc(-c2ccccc2O)cc1OC1CCCN(c2ccc(N3CCN(CCCCCCCCCn4cc(C5(Nc6cccc7c6C(=O)N(C6CCC(=O)NC6=O)C7=O)CC5)nn4)CC3)cc2)C1 (centres unmarked) [Example 90, 4-[[1-[1-[9-[4-[4-[3-[3-amino-6-(2-hydroxyphenyl)pyridazin-4-yl]oxy-1-piperidyl]phenyl]piperazin-1-yl]nonyl]triazol-4-yl]cyclopropyl]amino]-2-(2,6-dioxo-3-piperidyl)isoindoline-1,3-dione] | 103 | 37
Nc1nnc(-c2cc(F)ccc2O)cc1N1CCC(CNC(=O)CCCN2CCC(c3ccc(OC4CCC(=O)NC4=O)cc3)CC2)(c2ccccc2)CC1 (centres unmarked) [Example 183, N-[[1-[3-amino-6-(5-fluoro-2-hydroxy-phenyl)pyridazin-4-yl]-4-phenyl-4-piperidyl]methyl]-4-[4-[4-[(2,6-dioxo-3-piperidyl)oxy]phenyl]-1-piperidyl]butanamide] | 99 | 37
CC(Oc1cccc2c1C(=O)N(C1CCC(=O)NC1=O)C2=O)c1cn(CCC(=O)N2CCN(CCCN3CCN(c4ccc(N5CCC[C@H](Oc6cc(-c7ccccc7O)nnc6N)C5)cc4)CC3)CC2)nn1 (mixture of isomers) [Example 204, 2-(2,6-dioxo-3-piperidyl)-4-[1-[1-[3-oxo-3-[4-[3-[4-[4-[rac-(3S)-3-[3-amino-6-(2-hydroxyphenyl)pyridazin-4-yl]oxy-1-piperidyl]phenyl]piperazin-1-yl]propyl]piperazin-1-yl]propyl]triazol-4-yl]ethoxy]isoindoline-1,3-dione] | 907 | 39
Nc1nnc(-c2ccccc2O)cc1N1CCN(c2ccccc2)C(C(=O)NCC2CCC(NC(=O)C3CCN(c4ccc5c(c4)C(=O)N(C4CCC(=O)NC4=O)C5=O)CC3)CC2)C1 (centres unmarked) [Example 85, 4-[3-amino-6-(2-hydroxyphenyl)pyridazin-4-yl]-N-[[4-[[1-[2-(2,6-dioxopiperidin-3-yl)-1,3-dioxoisoindol-5-yl]piperidine-4-carbonyl]amino]cyclohexyl]methyl]-1-phenylpiperazine-2-carboxamide] | 92 | 43

— patent US20230024096A1, “BIFUNCTIONAL COMPOUNDS FOR THE TREATMENT OF CANCER” (Hoffmann-La Roche Inc., priority 2019, published 2023)
